Test results: patent US11512049B2, “Pleuromutilin 2-[(diphenylmethyl)thio] acetic acid ester with anti-drug resistant bacteria activity and a method of preparing the same” (SHAANXI UNIVERSITY OF SCIENCE AND TECHNOLOGY, priority 2021, dated 2022)

Legend:
Assay type in all cases: cell-based
Settings in all cases: for Zone of inhibition: 30 μg/tablet paper, 37° C., 24 h, ≥17 mm sensitive, 15-16 mm intermediary, ≤14 mm drug resistance; for Inhibitory effect (in words): summary of FIGS. 1-3 and Table 1
[1] = tested on: MRSA 18-575 (multi-resistant Staphylococcus aureus 575); assay: Paper diffusion method drug sensitivity test, MRSA 18-575
Description: (§1) The antimicrobial efficacy was determined by a paper diffusion method drug sensitivity test.
(§2) Experimental strains: multi-resistant Staphylococcus aureus 171, multi-resistant Staphylococcus aureus 575, multi-resistant Staphylococcus aureus 596. The experimental strains were provided by Huashan Hospital Affiliated to Fudan University (Institute of Antibiotic of Fudan University).
(§3) Drug sensitive paper: The drug sensitive paper is a special drug sensitive paper with a diameter of 6.35 mm and a water absorption of 0.02 mL. The control drug was vancomycin (30 μg/tablet); the test drug was pleuromutilin 2-[(diphenylmethyl)thio]acetic acid ester (30 μg/tablet).
(§4) The experimental strains were inoculated in non-selective medium and placed in air at 37° C. for 24 h. Pick a single colony that grows well and inoculate it into broth medium, incubate at 35° C.±2° C. for 6 hours, and use LA broth medium to calibrate the concentration of the bacterial solution to 0.5 Mie turbidimetric tube ([…]). A bacterial suspension is obtained.
(§5) LB dry powder was weighed, sterilized at 103.4 Kpa, 121.3° C. high-pressure steam for 15 min, and then placed it in a 40° C.-50° C. water bath. A sterile empty plate (inner diameter 9 cm) was placed on the surface of the ultra-clean table water table, and […] to the plate. The thickness of each plate was 3 mm to 4 mm. After the plate was cooled at room temperature, it was stored in the refrigerator at 2° C.-8° C. A sterile cotton swab was used to dip the bacterial solution and to evenly coat the surface of the LB plate 3 times. After inoculation of the bacterial suspension, the LB plate was dried at room temperature for 3 min to 5 min. Sterile forceps were used to closely attach the antibacterial drug paper to the dish. The dish was put upside down and placed in a 37° C. incubator for 24 h. The results were observed by measuring the diameter. Taking 0.5% DMSO solution as a negative control, the antibacterial activity is expressed by the diameter of the inhibition zone. The inhibition zone ≥17 mm, sensitive; the inhibition zone of 15 mm-16 mm, intermediary; the inhibition zone ≤14 mm, drug resistance.

[2] = tested on: MRSA 18-171 (multi-resistant Staphylococcus aureus 171); assay: Paper diffusion method drug sensitivity test, MRSA 18-171
Description: as §1, §2, §3, §4, §5

[3] = tested on: MRSA 18-596 (multi-resistant Staphylococcus aureus 596); assay: Paper diffusion method drug sensitivity test, MRSA 18-596
Description: as §1, §2, §3, §4, §5

Row | Structure (SMILES) | Zone of inhibition [1] [mm] | Inhibitory effect (in words) [1] | Zone of inhibition [2] [mm] | Inhibitory effect (in words) [2] | Zone of inhibition [3] [mm] | Inhibitory effect (in words) [3]
1 | C=C[C@]1(C)C[C@@H](OC(=O)COC(=O)CSC(c2ccccc2)c2ccccc2)[C@]2(C)[C@H](C)CC[C@]3(CCC(=O)[C@H]32)[C@@H](C)[C@@H]1O | 23 | strong inhibitory effects | 21 | strong inhibitory effects | 25 | strong inhibitory effects
2 | O=C(O)CSC(c1ccccc1)c1ccccc1 [2-[(Diphenylmethyl)thio]acetic acid] | 0 | no inhibitory effect | 0 | no inhibitory effect | 0 | no inhibitory effect
3 | C=C[C@]1(C)C[C@@H](OC(=O)CO)[C@]2(C)[C@H](C)CC[C@]3(CCC(=O)[C@H]32)[C@@H](C)[C@@H]1O [Pleuromutilin] | 0 | no inhibitory effect | 0 | no inhibitory effect | 0 | no inhibitory effect
4 | CN[C@H](CC(C)C)C(=O)N[C@H]1C(=O)N[C@@H](CC(N)=O)C(=O)N[C@H]2C(=O)N[C@H]3C(=O)N[C@H](C(=O)N[C@H](C(=O)O)c4cc(O)cc(O)c4-c4cc3ccc4O)[C@H](O)c3ccc(c(Cl)c3)Oc3cc2cc(c3O[C@@H]2O[C@H](CO)[C@@H](O)[C@H](O)[C@H]2O[C@H]2C[C@](C)(N)[C@H](O)[C@H](C)O2)Oc2ccc(cc2Cl)[C@H]1O [Vancomycin, vancomycin] | 18 |  | 17 |  | 21 | 
